Each structure is given as a SMILES string. Where two headings read alike, the source gives them in different places.

From US10344048B2, “Certain chemical entities, compositions, and methods” (priority 2011, dated 2019) come the findings set out here.

This experiment concerns A549 cells. As to the kind of experiment: Inhibition of cell growth in tumor cells, MTT assay. The experiment is classed as cell-based. The conditions noted are these: Homo sapiens, read-out: A549 cell IC50. As to the method: Inhibition of cell growth by compounds was measured using MTT assay (Mosmann, T., Journal of Immunological Methods, 1983, 65, 55-63). Tumor cell lines were purchased from ATCC (American Type Culture Collection, Manassas, Va.). All cell lines were maintained in RPMI 1640 (Hyclone) supplemented with 10% fetal bovine serum (FBS, Hyclone), glutamine (2 mM, Hyclone), and antibiotics (penicillin 100 U/mL and streptomycin 50 μg/mL) at 37° C. in a humidified atmosphere of 5% CO2 in air. Taxol (positive control, Sigma) and compounds were dissolved in DMSO (Sigma), and the final concentration of DMSO in the medium was 1%. Tumor cells were plated in 96-well plates at densities from 4000 cells/well of a 96-well plate and allowed to adhere/grow for 24 h. They were then treated with various concentrations of drug for 72 h. […] The number of cells remaining after 72 h was compared to the number of viable cells at the time of compound addition by measuring the absorbance at 570 nm, allowing for the calculation of growth inhibition.
All concentrations of compounds were tested in triplicate and controls were averaged over 4 wells. IC50 was calculated by plotting the concentration of compound vs the percentage of inhibition in treated wells using GraphPad Prism 5. […]
(In general: Formazan colour is commonly taken as a measure of viable cells.)

For `CC(=O)O[C@H]1C[C@]2(O)[C@@H]3CC[C@@H]4C[C@@H](OC(=O)N5CCNCC5)CC[C@]4(C)[C@H]3CC[C@]2(C)[C@H]1c1ccc(=O)oc1` [(3S,5R,8R,9S,10S,13R,14S,16S,17R)-16-acetoxy-14-hydroxy-10,13-dimethyl-17-(2-oxo-2H-pyran-5-yl)hexadecahydro-1H-cyclopenta[a]phenanthren-3-yl piperazine-1-carboxylate], the IC50 (A549, 72 h) was determined as 5.6 nM.
Consider `C[C@]12CC[C@H](OC(=O)N3CCNCC3)C[C@H]1CC[C@@H]1[C@@H]2CC[C@]2(C)[C@@H](C3=CC(=O)OC3)CC[C@]12O` [(3S,5R,8R,9S,10S,13R,14S,17R)-14-hydroxy-10,13-dimethyl-17-(5-oxo-2,5-dihydrofuran-3-yl)hexadecahydro-1H-cyclopenta[a]phenanthren-3-yl piperazine-1-carboxylate], for which the IC50 (A549 cells, MTT assay, 72 h compound exposure) was found to be 39 nM.

By IC50 is commonly meant the concentration needed to halve the response being measured.
